Data published in the kinase profiling compilation of Christmann-Franck et al. (2016).
“And” between values parts separate entries of the source, which are not always exact repeats. Equal values may be shown once. Each block holds one compound with its values, some of them ahead of it.

What was measured:
[1] = test system: FLT3 (human), P36888 [D835Y]; assay: KINOMEscan competition binding; details: compound 10.0 µM
CHEK1 (human) = CHEK1 (human) (UniProt O14757); assay: KINOMEscan competition binding; details: compound 10.0 µM
[2] = test system: EGFR (human), P00533 [747-751 del / S ins]; assay: KINOMEscan competition binding; details: compound 10.0 µM
[3] = test system: ABL1 (human), P00519 [F317I]; assay: KINOMEscan competition binding; details: compound 10.0 µM
[4] = test system: ABL1 (human), P00519 [F317L]; assay: KINOMEscan competition binding; details: compound 10.0 µM
[5] = test system: EGFR (human), P00533 [P753S; 747-752 del]; assay: KINOMEscan competition binding; details: compound 10.0 µM
FRK (human) = FRK (human) (UniProt P42685); assay: KINOMEscan competition binding; details: compound 10.0 µM
[6] = test system: KIT (human), P10721 [D816V]; assay: KINOMEscan competition binding; details: compound 10.0 µM
RPS6KA6 KD2 (human) = RPS6KA6 KD2 (human) (UniProt Q9UK32); assay: KINOMEscan competition binding; details: compound 10.0 µM
[7] = test system: EGFR (human), P00533 [G719C; 746-750 del]; assay: KINOMEscan competition binding; details: compound 10.0 µM
SIK1 (human) = SIK1 (human) (UniProt P57059); assay: KINOMEscan competition binding; details: compound 10.0 µM
SRPK3 (human) = SRPK3 (human) (UniProt Q9UPE1); assay: KINOMEscan competition binding; details: compound 10.0 µM
RIOK3 (human) = RIOK3 (human) (UniProt O14730); assay: KINOMEscan competition binding; details: compound 10.0 µM
LCK (human) = LCK (human) (UniProt P06239); assay: KINOMEscan competition binding; details: compound 10.0 µM
[8] = biological target: TYK2 JH2 pseudokinase (human) (UniProt P29597); assay: KINOMEscan competition binding; details: compound 10.0 µM
TNK2 (human) = TNK2 (human) (UniProt Q07912); assay: KINOMEscan competition binding; details: compound 10.0 µM
BLK (human) = BLK (human) (UniProt P51451); assay: KINOMEscan competition binding; details: compound 10.0 µM
RIOK1 (human) = RIOK1 (human) (UniProt Q9BRS2); assay: KINOMEscan competition binding; details: compound 10.0 µM
SRPK1 (human) = SRPK1 (human) (UniProt Q96SB4); assay: KINOMEscan competition binding; details: compound 10.0 µM
[9] = test system: EGFR (human), P00533 [L858R]; assay: KINOMEscan competition binding; details: compound 10.0 µM
[10] = test system: FLT3 (human), P36888 [D835H]; assay: KINOMEscan competition binding; details: compound 10.0 µM
[11] = test system: KIT (human), P10721 [V559D]; assay: KINOMEscan competition binding; details: compound 10.0 µM
[12] = test system: EGFR (human), P00533 [752-759 del]; assay: KINOMEscan competition binding; details: compound 10.0 µM
ULK1 (human) = ULK1 (human) (UniProt O75385); assay: KINOMEscan competition binding; details: compound 10.0 µM
KIT (human) = KIT (human) (UniProt P10721); assay: KINOMEscan competition binding; details: compound 10.0 µM
[13] = test system: EGFR (human), P00533 [A750P; 747-749 del]; assay: KINOMEscan competition binding; details: compound 10.0 µM
[14] = test system: EGFR (human), P00533 [L861Q]; assay: KINOMEscan competition binding; details: compound 10.0 µM
GAK (human) = GAK (human) (UniProt O14976); assay: KINOMEscan competition binding; details: compound 10.0 µM
Sequence of GAK (human) (O14976 whole entry, looked up): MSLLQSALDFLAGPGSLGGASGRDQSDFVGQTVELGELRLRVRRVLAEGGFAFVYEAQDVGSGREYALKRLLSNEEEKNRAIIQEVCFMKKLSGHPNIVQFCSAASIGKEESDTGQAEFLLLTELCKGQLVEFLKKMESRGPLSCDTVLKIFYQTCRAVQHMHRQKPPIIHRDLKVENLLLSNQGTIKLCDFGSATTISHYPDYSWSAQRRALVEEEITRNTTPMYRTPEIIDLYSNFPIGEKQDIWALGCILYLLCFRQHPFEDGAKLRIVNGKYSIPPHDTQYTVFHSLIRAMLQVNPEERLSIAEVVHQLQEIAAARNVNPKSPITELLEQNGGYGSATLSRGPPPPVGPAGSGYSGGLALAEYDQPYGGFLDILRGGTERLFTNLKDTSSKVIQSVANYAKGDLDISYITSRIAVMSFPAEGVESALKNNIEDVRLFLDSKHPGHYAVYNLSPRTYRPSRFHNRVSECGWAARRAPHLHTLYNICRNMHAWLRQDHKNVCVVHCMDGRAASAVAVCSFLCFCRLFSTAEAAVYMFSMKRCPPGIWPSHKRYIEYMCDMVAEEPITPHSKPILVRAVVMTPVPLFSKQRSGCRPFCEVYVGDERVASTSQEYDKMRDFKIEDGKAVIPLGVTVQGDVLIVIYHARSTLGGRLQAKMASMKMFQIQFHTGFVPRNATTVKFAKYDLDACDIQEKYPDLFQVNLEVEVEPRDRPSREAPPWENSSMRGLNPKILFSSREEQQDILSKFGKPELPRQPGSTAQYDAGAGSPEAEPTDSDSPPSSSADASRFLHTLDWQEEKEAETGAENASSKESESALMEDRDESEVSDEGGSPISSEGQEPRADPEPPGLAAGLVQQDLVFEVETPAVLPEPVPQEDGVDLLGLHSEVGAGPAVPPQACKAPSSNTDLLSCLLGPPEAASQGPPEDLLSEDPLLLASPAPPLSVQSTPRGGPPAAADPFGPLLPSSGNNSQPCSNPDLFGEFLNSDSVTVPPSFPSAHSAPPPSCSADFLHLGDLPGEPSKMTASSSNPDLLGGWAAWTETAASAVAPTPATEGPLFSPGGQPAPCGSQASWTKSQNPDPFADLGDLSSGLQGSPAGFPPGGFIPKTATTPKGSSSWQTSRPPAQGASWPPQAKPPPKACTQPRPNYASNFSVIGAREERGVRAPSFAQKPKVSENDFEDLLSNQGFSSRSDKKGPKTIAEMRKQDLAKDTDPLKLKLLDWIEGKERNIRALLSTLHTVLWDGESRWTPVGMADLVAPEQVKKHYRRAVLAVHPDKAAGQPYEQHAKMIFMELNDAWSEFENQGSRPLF

CSF1R (human) = CSF1R (human) (UniProt P07333); assay: KINOMEscan competition binding; details: compound 10.0 µM
RPS6KA1 KD2 (human) = RPS6KA1 KD2 (human) (UniProt Q15418); assay: KINOMEscan competition binding; details: compound 10.0 µM
SLK (human) = SLK (human) (UniProt Q9H2G2); assay: KINOMEscan competition binding; details: compound 10.0 µM
Sequence of SLK (human) (Q9H2G2 whole entry, looked up): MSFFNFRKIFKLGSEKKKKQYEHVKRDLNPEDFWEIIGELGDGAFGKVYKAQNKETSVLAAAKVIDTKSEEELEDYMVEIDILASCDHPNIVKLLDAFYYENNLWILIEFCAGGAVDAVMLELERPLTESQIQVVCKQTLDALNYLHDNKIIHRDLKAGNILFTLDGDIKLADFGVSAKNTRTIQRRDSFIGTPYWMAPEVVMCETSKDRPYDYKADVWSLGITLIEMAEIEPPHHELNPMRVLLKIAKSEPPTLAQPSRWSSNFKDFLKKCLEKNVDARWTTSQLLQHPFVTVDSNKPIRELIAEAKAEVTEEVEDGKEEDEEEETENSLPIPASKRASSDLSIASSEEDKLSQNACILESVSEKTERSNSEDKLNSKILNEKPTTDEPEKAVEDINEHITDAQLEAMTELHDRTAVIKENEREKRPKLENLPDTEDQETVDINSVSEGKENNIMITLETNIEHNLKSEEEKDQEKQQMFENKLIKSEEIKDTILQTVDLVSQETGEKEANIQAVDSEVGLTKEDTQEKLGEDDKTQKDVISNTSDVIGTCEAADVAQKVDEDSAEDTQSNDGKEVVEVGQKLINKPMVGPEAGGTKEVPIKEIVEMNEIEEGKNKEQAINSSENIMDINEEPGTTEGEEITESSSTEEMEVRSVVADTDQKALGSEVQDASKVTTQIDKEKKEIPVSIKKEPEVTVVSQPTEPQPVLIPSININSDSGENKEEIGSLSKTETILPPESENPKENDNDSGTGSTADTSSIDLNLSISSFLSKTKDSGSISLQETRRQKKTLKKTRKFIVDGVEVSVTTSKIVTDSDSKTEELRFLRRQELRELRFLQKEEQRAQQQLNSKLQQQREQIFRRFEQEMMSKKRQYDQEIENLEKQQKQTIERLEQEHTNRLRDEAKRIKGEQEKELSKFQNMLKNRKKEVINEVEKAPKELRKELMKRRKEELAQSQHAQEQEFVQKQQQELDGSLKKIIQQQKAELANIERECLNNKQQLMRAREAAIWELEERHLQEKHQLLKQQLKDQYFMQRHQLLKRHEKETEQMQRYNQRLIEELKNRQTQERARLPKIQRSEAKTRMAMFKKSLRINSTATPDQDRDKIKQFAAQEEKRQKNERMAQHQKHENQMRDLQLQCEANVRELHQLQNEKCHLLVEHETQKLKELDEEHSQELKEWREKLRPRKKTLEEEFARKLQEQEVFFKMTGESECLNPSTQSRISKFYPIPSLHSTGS

SIK2 (human) = SIK2 (human) (UniProt Q9H0K1); assay: KINOMEscan competition binding; details: compound 10.0 µM
PDGFRB (human) = PDGFRB (human) (UniProt P09619); assay: KINOMEscan competition binding; details: compound 10.0 µM
[15] = test system: FLT3 (human), P36888 [ITD]; assay: KINOMEscan competition binding; details: compound 10.0 µM
PIP5K1A (human) = PIP5K1A (human) (UniProt Q99755); assay: KINOMEscan competition binding; details: compound 10.0 µM
[16] = test system: FLT3 (human), P36888 [N841I]; assay: KINOMEscan competition binding; details: compound 10.0 µM
BMP2K (human) = BMP2K (human) (UniProt Q9NSY1); assay: KINOMEscan competition binding; details: compound 10.0 µM
DAPK2 (human) = DAPK2 (human) (UniProt Q9UIK4); assay: KINOMEscan competition binding; details: compound 10.0 µM
Sequence of DAPK2 (human) (Q9UIK4 whole entry, looked up): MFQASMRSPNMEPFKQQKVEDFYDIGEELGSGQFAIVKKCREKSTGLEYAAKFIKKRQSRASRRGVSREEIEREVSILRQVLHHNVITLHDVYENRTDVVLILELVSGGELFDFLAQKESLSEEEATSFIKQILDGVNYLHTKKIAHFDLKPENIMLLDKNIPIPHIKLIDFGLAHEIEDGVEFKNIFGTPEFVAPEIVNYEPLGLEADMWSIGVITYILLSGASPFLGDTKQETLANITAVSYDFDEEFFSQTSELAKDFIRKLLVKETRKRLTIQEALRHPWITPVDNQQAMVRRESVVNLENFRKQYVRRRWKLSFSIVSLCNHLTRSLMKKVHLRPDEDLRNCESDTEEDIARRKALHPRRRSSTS

[17] = test system: EGFR (human), P00533 [G719S]; assay: KINOMEscan competition binding; details: compound 10.0 µM
PLK4 (human) = PLK4 (human) (UniProt O00444); assay: KINOMEscan competition binding; details: compound 10.0 µM
FER (human) = FER (human) (UniProt P16591); assay: KINOMEscan competition binding; details: compound 10.0 µM
DCLK1 (human) = DCLK1 (human) (UniProt O15075); assay: KINOMEscan competition binding; details: compound 10.0 µM
TNK1 (human) = TNK1 (human) (UniProt Q13470); assay: KINOMEscan competition binding; details: compound 10.0 µM
MET (human) = MET (human) (UniProt P08581); assay: KINOMEscan competition binding; details: compound 10.0 µM
PLK1 (human) = PLK1 (human) (UniProt P53350); assay: KINOMEscan competition binding; details: compound 10.0 µM
Sequence of PLK1 (human) (P53350 whole entry, looked up): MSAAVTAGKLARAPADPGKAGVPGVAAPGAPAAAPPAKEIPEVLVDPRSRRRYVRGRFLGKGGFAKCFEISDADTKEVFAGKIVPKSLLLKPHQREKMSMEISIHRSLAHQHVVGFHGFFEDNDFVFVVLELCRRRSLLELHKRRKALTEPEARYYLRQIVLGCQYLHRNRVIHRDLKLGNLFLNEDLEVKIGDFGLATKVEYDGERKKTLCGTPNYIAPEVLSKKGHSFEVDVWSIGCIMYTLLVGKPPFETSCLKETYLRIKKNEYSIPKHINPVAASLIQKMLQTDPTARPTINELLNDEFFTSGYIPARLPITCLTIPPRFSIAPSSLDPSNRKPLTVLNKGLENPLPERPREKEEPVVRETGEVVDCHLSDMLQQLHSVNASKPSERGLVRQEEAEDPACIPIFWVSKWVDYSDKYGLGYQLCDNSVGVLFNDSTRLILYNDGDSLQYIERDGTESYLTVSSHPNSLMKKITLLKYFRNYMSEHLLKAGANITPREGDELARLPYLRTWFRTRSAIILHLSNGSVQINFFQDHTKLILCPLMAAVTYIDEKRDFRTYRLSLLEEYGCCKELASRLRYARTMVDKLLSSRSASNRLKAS

CAMKK2 (human) = CAMKK2 (human) (UniProt Q96RR4); assay: KINOMEscan competition binding; details: compound 10.0 µM
FGFR4 (human) = FGFR4 (human) (UniProt P22455); assay: KINOMEscan competition binding; details: compound 10.0 µM
ULK2 (human) = ULK2 (human) (UniProt Q8IYT8); assay: KINOMEscan competition binding; details: compound 10.0 µM
ALK (human) = ALK (human) (UniProt Q9UM73); assay: KINOMEscan competition binding; details: compound 10.0 µM
PTK2 (human) = PTK2 (human) (UniProt Q05397); assay: KINOMEscan competition binding; details: compound 10.0 µM
MKNK2 (human) = MKNK2 (human) (UniProt Q9HBH9); assay: KINOMEscan competition binding; details: compound 10.0 µM
STK33 (human) = STK33 (human) (UniProt Q9BYT3); assay: KINOMEscan competition binding; details: compound 10.0 µM
INSR (human) = INSR (human) (UniProt P06213); assay: KINOMEscan competition binding; details: compound 10.0 µM
DAPK3 (human) = DAPK3 (human) (UniProt O43293); assay: KINOMEscan competition binding; details: compound 10.0 µM
INSRR (human) = INSRR (human) (UniProt P14616); assay: KINOMEscan competition binding; details: compound 10.0 µM
MYLK (human) = MYLK (human) (UniProt Q15746); assay: KINOMEscan competition binding; details: compound 10.0 µM
IGF1R (human) = IGF1R (human) (UniProt P08069); assay: KINOMEscan competition binding; details: compound 10.0 µM
TTK (human) [18] = biological target: TTK (human) (UniProt P33981); assay: KINOMEscan competition binding; details: for kinase still bound, per cent of control: compound 10.0 µM
Sequence of TTK (human) (P33981 whole entry, looked up): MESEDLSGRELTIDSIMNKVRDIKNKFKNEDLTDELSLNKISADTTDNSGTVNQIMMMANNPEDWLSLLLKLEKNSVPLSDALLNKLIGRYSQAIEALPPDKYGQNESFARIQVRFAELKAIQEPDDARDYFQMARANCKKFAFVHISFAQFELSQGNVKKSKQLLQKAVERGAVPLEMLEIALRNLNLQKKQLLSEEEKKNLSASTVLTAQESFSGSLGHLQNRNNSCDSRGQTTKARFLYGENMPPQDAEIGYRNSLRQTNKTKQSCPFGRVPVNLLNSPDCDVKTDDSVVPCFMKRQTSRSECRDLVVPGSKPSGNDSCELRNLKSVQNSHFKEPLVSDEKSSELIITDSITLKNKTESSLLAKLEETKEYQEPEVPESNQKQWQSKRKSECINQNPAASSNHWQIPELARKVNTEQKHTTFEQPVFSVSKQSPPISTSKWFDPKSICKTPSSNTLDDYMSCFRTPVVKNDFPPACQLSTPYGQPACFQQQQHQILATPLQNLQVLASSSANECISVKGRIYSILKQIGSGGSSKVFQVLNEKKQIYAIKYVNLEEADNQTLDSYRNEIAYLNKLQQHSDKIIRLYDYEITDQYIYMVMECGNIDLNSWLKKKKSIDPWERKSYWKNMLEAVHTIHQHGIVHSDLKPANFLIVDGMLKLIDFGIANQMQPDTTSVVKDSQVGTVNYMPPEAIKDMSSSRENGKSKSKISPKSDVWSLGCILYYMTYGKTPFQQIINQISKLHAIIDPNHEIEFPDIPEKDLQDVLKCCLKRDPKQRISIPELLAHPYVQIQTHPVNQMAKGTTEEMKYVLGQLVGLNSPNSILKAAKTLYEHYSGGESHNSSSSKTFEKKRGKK

PLK3 (human) = PLK3 (human) (UniProt Q9H4B4); assay: KINOMEscan competition binding; details: compound 10.0 µM
Sequence of PLK3 (human) (Q9H4B4 whole entry, looked up): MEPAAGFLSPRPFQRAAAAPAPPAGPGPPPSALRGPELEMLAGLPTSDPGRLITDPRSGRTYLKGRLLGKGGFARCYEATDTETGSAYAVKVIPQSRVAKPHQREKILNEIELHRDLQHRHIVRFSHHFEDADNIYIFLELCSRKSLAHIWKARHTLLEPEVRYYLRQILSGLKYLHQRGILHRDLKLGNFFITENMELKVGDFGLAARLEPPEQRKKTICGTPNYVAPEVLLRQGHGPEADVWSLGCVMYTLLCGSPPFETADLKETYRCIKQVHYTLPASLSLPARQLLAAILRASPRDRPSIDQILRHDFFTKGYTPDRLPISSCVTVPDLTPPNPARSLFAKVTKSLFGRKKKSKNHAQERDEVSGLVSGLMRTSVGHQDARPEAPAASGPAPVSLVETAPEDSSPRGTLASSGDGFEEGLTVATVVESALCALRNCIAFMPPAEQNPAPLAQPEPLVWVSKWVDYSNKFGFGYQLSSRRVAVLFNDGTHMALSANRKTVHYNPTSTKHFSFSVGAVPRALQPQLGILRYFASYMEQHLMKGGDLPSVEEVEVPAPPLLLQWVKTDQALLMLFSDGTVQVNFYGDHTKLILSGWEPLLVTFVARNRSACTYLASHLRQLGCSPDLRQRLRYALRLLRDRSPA

RPS6KA2 KD2 (human) = RPS6KA2 KD2 (human) (UniProt Q15349); assay: KINOMEscan competition binding; details: compound 10.0 µM
EGFR (human) = EGFR (human) (UniProt P00533); assay: KINOMEscan competition binding; details: compound 10.0 µM
PTK2B (human) = PTK2B (human) (UniProt Q14289); assay: KINOMEscan competition binding; details: compound 10.0 µM
TTK (human) [19] = biological target: TTK (human) (UniProt P33981); assay: SelectScreen, TR FRET

- kinase still bound, per cent of control [1]: 8.6%
- kinase still bound, per cent of control (CHEK1 (human)): 27%
- kinase still bound, per cent of control [2]: 11%
- kinase still bound, per cent of control [3]: 17%
- kinase still bound, per cent of control [4]: 16%
- kinase still bound, per cent of control [5]: 17%
- kinase still bound, per cent of control (FRK (human)): 2.8%
- kinase still bound, per cent of control [6]: 2.4%
- kinase still bound, per cent of control (RPS6KA6 KD2 (human)): 18%
- kinase still bound, per cent of control [7]: 12%
- kinase still bound, per cent of control (SIK1 (human)): 12%
- kinase still bound, per cent of control (SRPK3 (human)): 30%
- kinase still bound, per cent of control (RIOK3 (human)): 23%
- kinase still bound, per cent of control (LCK (human)): 25%
- kinase still bound, per cent of control [8]: 28%
- kinase still bound, per cent of control (TNK2 (human)): 5%
- kinase still bound, per cent of control (BLK (human)): 21%
- kinase still bound, per cent of control (RIOK1 (human)): 27%
- kinase still bound, per cent of control (SRPK1 (human)): 29%
- kinase still bound, per cent of control [9]: 31%
- kinase still bound, per cent of control [10]: 18%
- kinase still bound, per cent of control [11]: 4.6%
- kinase still bound, per cent of control [12]: 14%
- kinase still bound, per cent of control (ULK1 (human)): 24%
- kinase still bound, per cent of control (KIT (human)): 5.7%
- kinase still bound, per cent of control [13]: 5.2%
- kinase still bound, per cent of control [14]: 21%
- kinase still bound, per cent of control (GAK (human)): 2%
- kinase still bound, per cent of control (CSF1R (human)): 16%
- kinase still bound, per cent of control (RPS6KA1 KD2 (human)): 33%
- kinase still bound, per cent of control (SLK (human)): 29%
- kinase still bound, per cent of control (SIK2 (human)): 26%
- kinase still bound, per cent of control (PDGFRB (human)): 1.1%
- kinase still bound, per cent of control [15]: 31%
- kinase still bound, per cent of control (PIP5K1A (human)): 34%
- kinase still bound, per cent of control [16]: 23%
- kinase still bound, per cent of control (BMP2K (human)): 15%
SMILES: COc1cc(N2CCN(C)CC2)ccc1Nc1ncc2c(n1)N(c1ccccc1)CCC(=O)N2

- kinase still bound, per cent of control (DAPK2 (human)): 29%
- kinase still bound, per cent of control [2]: 6.2%
- kinase still bound, per cent of control [17]: 14%
- kinase still bound, per cent of control (PLK4 (human)): 8.2%
- kinase still bound, per cent of control [5]: 6.6%
- kinase still bound, per cent of control (FER (human)): 18%
- kinase still bound, per cent of control (DCLK1 (human)): 20%
- kinase still bound, per cent of control (TNK1 (human)): 11%
- kinase still bound, per cent of control [7]: 10%
- kinase still bound, per cent of control (MET (human)): 9.1%
- kinase still bound, per cent of control (PLK1 (human)): 0.2%
- kinase still bound, per cent of control (CAMKK2 (human)): 20%
- kinase still bound, per cent of control (FGFR4 (human)): 34%
- kinase still bound, per cent of control (ULK2 (human)): 26%
- kinase still bound, per cent of control (ALK (human)): 22%
- kinase still bound, per cent of control (PTK2 (human)): 6.2%
- kinase still bound, per cent of control (MKNK2 (human)): 13%
- kinase still bound, per cent of control (STK33 (human)): 12%
- kinase still bound, per cent of control [9]: 17%
- kinase still bound, per cent of control [12]: 10%
- kinase still bound, per cent of control (INSR (human)): 28%
- kinase still bound, per cent of control (DAPK3 (human)): 34%
- kinase still bound, per cent of control [13]: 4%
- kinase still bound, per cent of control [14]: 6.6%
- kinase still bound, per cent of control (GAK (human)): 1.2%
- kinase still bound, per cent of control (INSRR (human)): 30%
- kinase still bound, per cent of control (MYLK (human)): 31%
- kinase still bound, per cent of control (SLK (human)): 31%
- kinase still bound, per cent of control (IGF1R (human)): 14%
- Kd (TTK (human) [18]): 20.5 nM
- kinase still bound, per cent of control (TTK (human) [18]): 3.8%
- kinase still bound, per cent of control (PLK3 (human)): 1.8%
- kinase still bound, per cent of control (RPS6KA2 KD2 (human)): 30%
- kinase still bound, per cent of control (EGFR (human)): 17% and 29%
- kinase still bound, per cent of control (PTK2B (human)): 3.1%
- IC50 (TTK (human) [19]): 254 nM
SMILES: COc1cc(N2CCC(C)(O)CC2)ccc1Nc1ncc2c(n1)N(C1CCCC1)CCC(=O)N2C

- kinase still bound, per cent of control [2]: 12%
- kinase still bound, per cent of control [17]: 23%
- kinase still bound, per cent of control [5]: 15%
- kinase still bound, per cent of control [7]: 30%
- kinase still bound, per cent of control (PLK1 (human)): 1.2%
- kinase still bound, per cent of control (PTK2 (human)): 19%
- kinase still bound, per cent of control [9]: 30%
- kinase still bound, per cent of control [12]: 21%
- kinase still bound, per cent of control [13]: 21%
- kinase still bound, per cent of control [14]: 25%
- kinase still bound, per cent of control (GAK (human)): 2%
- kinase still bound, per cent of control (TTK (human) [18]): 5%
- kinase still bound, per cent of control (PLK3 (human)): 21%
- kinase still bound, per cent of control (EGFR (human)): 24%
- kinase still bound, per cent of control (PTK2B (human)): 22%
SMILES: COc1cc(N2CCC(O)CC2)ccc1Nc1ncc2c(n1)N(c1ccccc1)CCC(=O)N2C
